For experiment [1], the system named is MCF-7 cells. Kind of experiment: Annexin V-FITC/PI double staining, flow cytometry. It is filed as cell-based, human. The settings on record: MCF-7, 5.0 μM, 24 h. The procedure: It was reported that the inactivation of HDAC and/or MDM2 could increase the percentage of apoptosis cells ([85]–[87]). Therefore, three methods were applied to assess the effect of MDM2-HDAC dual inhibitor 11b on the apoptosis of MCF-7 cells. […] Subsequently, the annexin V-FITC/propidium iodide (PI) double staining method was carried out to quantitatively detect the effect of compound 11b on cell apoptosis (Figure 9B).
Cells were collected after incubation, then fixed with 75% ice-cold ethanol and stored at -20°C for 1 h. The cells were then harvested with 0.25% trypsin (without EDTA) and centrifuged at 2000 rpm for 5min. Then, the harvested cells were washed with ice-cold PBS twice and resuspended in 500 μL of 1× binding buffer, which was then added to 5 μL of annexin V-FITC and incubated at room temperature in the dark for 15 min. After adding 10 μL of propidium iodide (PI), the cells were incubated at room temperature in the dark. After another 15 min incubation, the cells were collected and analyzed by flow cytometry.

In experiment [2] the test system is HCT116 cells. Kind of experiment: MTT antiproliferative assay, HCT116. As to conditions: Homo sapiens, HCT-116, read-out: IC50 HCT116. (In general: Tetrazolium assays rely on reduction of a dye to a coloured formazan, in cell work by metabolically active cells.)
Procedure: The cytotoxicity assay was performed with MTT method as previously described ([73], [88], [89]).

SMILES strings stand for the structures.

By IC50 is commonly meant the midpoint of a concentration-inhibition curve.

The compound `O=C(CCCCCCC(=O)N1CCC(C(=O)Nc2ccc([C@@H]3[C@H]4CSCN4[C@]4(C(=O)Nc5cc(Cl)ccc54)[C@H]3C(=O)c3ccccc3)cc2)CC1)NO` [compound 11b, N-(4-((3R,6'S,7'R,7a'S)-6'-benzoyl-6-chloro-2-oxo-1',6',7',7a'-tetrahydro-3'H-spiro[indoline-3,5'-pyrrolo[1,2-c]thiazol]-7'-yl)phenyl)-1-(8-(hydroxyamino)-8-oxooctanoyl)piperidine-4-carboxamide] came in with an apoptotic cells in experiment [1] of 37.36%. In experiment [2], the IC50 was found to be 2.54 ± 1.07 µM.

These data come from paper PMC9386376, “Discovery of spirooxindole-derived small-molecule compounds as novel HDAC/MDM2 dual inhibitors and investigation of their anticancer activity” (Frontiers in Oncology, 2022).
